In patent US8163709B2, “TAK1-D mediated induction of cell death in human cancer cells by specific sequence short double-stranded RNAS” (Board of Regents of the University of Texas System, priority 2008, dated 2012):
Entries after “also recorded” stand apart in the source; their conditions may differ.

Key:
H460 cells = test: Apoptosis in H460 cells (caspase 3 cleavage, PARP cleavage, nuclear morphology); type: cell-based, human
From the text: Cell cycle arrest triggers programmed cell death in many tumor cell lines.
As cell cycle arrest is incompatible with survival in many tumor cell lines the cellular response of H460 cells to the treatment with dsRNA si5 was investigated.
Survival assay and apoptosis scoring.

H460 xenograft tumors = test: H460 xenograft tumor growth after intratumoral injection; type: in vivo
Method: In order to test whether the proposed treatment approach for NSCLC using dsRNA-mediated activation of TAK1-D is feasible in vivo H460 xenograft tumors grown in athymic NCr nu/nu mice were treated with by intratumoral injection of a liposomal dsRNA preparation. About 10 days after subcutaneous injection of […] H460 cells into the left hind leg of the animals tumors had reached a volume of about 300 μl and were injected with 50 μl of liposomal control RNA or active RNA si5. Liposomes consisting of DOTAP and Cholesterol (1:1) were prepared by sonication and extrusion. RNA was bound to the polycation protamine and liposome/polycation/RNA nanoparticles were prepared by mixing the protamine RNA complex with the liposomes. Finally 4 μg of RNA were injected in a volume of 50 μl on day 0 and 1. […].

TAK1-D = target: T1, TAK1-D (Homo sapiens, UniProt O43318); test: Subcellular localization of TAK1-D in H460 cells (fractionation, immunofluorescence); type: cell-based; design: endogenous in cells; host or cells: NCI-H460
T1 sequence (O43318 1-491 isoform O43318-4): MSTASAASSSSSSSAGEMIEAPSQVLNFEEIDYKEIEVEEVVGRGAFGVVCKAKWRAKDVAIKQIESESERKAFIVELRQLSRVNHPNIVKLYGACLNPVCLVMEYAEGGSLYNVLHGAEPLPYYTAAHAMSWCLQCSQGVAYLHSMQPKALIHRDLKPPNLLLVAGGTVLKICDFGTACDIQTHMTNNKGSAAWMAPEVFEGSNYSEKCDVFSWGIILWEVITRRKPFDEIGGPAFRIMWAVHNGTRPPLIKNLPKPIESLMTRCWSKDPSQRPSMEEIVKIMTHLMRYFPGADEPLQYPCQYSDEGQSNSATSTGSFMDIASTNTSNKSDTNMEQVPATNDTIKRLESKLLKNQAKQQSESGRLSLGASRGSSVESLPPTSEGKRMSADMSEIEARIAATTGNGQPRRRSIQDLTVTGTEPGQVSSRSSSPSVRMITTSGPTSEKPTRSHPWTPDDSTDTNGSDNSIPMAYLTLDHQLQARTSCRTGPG
Method: Subcellular fractionation. About […] H460 cells growing in a 10 cm dish were transfected with 20 nM dsRNA si5 or si6. […] A crude nuclear pellet (P.7) was obtained by centrifugation at 700 g and 4° C. for 5 minutes. The supernatant was centrifuged at 10,000 g and 4° C. for 30 minutes producing the P10 pellet and finally separated by ultracentrifugation (Sorvall 90SE ultracentrifuge and Sorvall AH-629 rotor) at 150,000 g and 4° C. for 1 hour into pellet (P150) and supernatant (S150). Proteins from the S150 fraction were concentrated by precipitation with 10% trichloroacetic acid (TCA). All pellets were dissolved in SDS sample buffer.
Immunofluorescence. H460 cells stably expressing TAK1-D fused on its c-terminus to a FLAG tag were generated as described above for the K36W mutant. Cells were transfected with 20 nM si5 or si6 and fixed in 4% formaldehyde 6 h later. After 15 min of fixation at room temperature cells were washed 3 times in PBS and permeabilized in methanol at −20° C. for 10 min. After one wash in PBS slides were blocked for 1 hour at room temperature in PBS containing 1% BSA. […] After three 5 min washes in PBS cells were visualized by fluorescence microscopy. […]

cdc25B = test: Nuclear cdc25B level in NCI-H460 cells; type: cell-based, human
From the text: P38 MAPK as well as SPK/JNK have a large number of downstream targets. Amongst these, the phosphorylation of the cell cycle control phosphatase cdc25 (Bulavin et al., 2001; Goss et al., 2003) are of particular interest, as these phosphorylations have the potential to transduce an immediate and direct effect of TAK1-D activation to the cell cycle. […] In contrast, both cdc25A and cdc25B were found in the nucleus and therefore capable of cell cycle control. […] The occurrence of this shifted form of cdc25A is indicative of phosphorylation and inactivation of cdc25A (Zhao et al., 2002). The amount of cdc25B in the nucleus decreases with kinetics similar to the phosphorylation of cdc25A, indicative for a phosphorylation dependent translocation and proteolytic digestion of cdc25B (Cans et al., 1999). Therefore, it can be concluded that activation of TAK1-D in NCI-H460 cells leads to an inactivation of cdc25A and cdc25B through p38 MAPK and SAPK/JNK mediated phosphorylation and proteolytic destruction.

[1] = test system: normal human skin fibroblasts; test: Crystal Violet staining of normal human skin fibroblasts; type: cell-based; settings: up to 20 nM, 48 h
Method: In order to obtain preliminary data describing the response of normal tissue cells to dsRNA mediated Tak1-D activation normal human fibroblasts as well as human bronchial epithelial cells (HBEC) were plated into 12-well multiwell plates, treated with siRNA si5 or si6 in different concentrations and stained with Crystal Violet 48 h later. […] […].

si5: 21-mer siRNA against TLK1 mRNA: GGCUUUUGACCUUUAUGAAtt (SEQ ID NO: 2) / ttCCGAAAACUGGAAAUACUU (SEQ ID NO: 3) (sense GGCUUUUGACCUUUAUGAATT; antisense TTCCGAAAACUGGAAAUACUU; chemistry not given here; one strand is listed 3' to 5')
cellular apoptotic response with inactivated Tak1-D catalytic activity (H460 cells; H460, adenoviral K63W, 48 h after siRNA): significantly reduced
nuclear morphology, HOECHST 33342 staining (H460 cells; H460 cells, 48 h): typical apoptotic chromatin condensation and fragmentation
time until PARP cleavage (H460 cells; H460 cells, Western blot): ≤ 24 h
caspase 3 cleavage (H460 cells; NCI-H460, 24 h after treatment): cells from the G1 and the S phase of the cell cycle show caspase 3 cleavage
fraction of G1 and S phase cells staining positive for cleaved caspase 3 (H460 cells; NCI-H460, 48 h, compared with 24 h): higher
normal tissue toxicity (necrosis of skin or tumor vascular system) (H460 xenograft tumors; intratumoral liposomal preparation): no sign of normal tissue toxicity
tumor growth kinetics (H460 xenograft tumors; intratumoral, liposome (DOTAP:Cholesterol)/protamine/RNA nanoparticles, 4 μg RNA day 0 and 1): tumor growth delay
colocalization of FLAG-TAK1-D and ribosomes (S6) (TAK1-D; H460, 20 nM, 6 h, immunofluorescence): increased colocalization
amount of TAK1-D in the 150,000 g pellet (TAK1-D; H460, 4 h, compared to control si6): increased
amount of cdc25B in the nucleus (cdc25B): decreases
growth inhibitory or cytotoxic effect [1]: no growth inhibitory or cytotoxic effect could be observed; also recorded: no cytotoxicity or growth delay
